Results on twelve molecules are retold here after patent US12692236B2, “Small molecule modulators of sigma-1 and sigma-2 receptors and uses thereof” (Northwestern University, priority 2018, dated 2026).

One experiment deals with sigma-1 receptor (Homo sapiens, UniProt Q99720). Description: sigma-1 receptor binding affinity (Ki). As to conditions: for Ki: read-out: Ki (nM) Sigma-1.
Another experiment has as its target sigma-2 receptor (Homo sapiens, UniProt Q5BJF2). In words: sigma-2 receptor binding affinity (Ki). As to conditions: read-out: Ki (nM) Sigma-2.

Chain of sigma-1 receptor (Q99720 whole entry, species assumed): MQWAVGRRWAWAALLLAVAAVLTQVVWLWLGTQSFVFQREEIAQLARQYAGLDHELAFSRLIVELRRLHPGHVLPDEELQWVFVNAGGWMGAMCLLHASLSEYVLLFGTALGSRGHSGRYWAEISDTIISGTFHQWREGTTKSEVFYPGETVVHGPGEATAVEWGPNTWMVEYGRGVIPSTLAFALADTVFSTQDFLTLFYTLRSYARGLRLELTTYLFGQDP
Chain of sigma-2 receptor (Q5BJF2 whole entry, species assumed): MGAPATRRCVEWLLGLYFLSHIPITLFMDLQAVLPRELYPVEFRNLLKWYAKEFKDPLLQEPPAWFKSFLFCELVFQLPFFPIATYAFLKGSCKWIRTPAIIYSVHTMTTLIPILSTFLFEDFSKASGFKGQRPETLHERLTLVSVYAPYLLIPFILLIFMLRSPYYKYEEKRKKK

Broadly, the Ki is a measure of affinity in units of concentration, obtained from inhibition or displacement. Take `O=C(c1nn(Cc2ccccc2)c2c1CC(NCCc1ccncc1)CC2)N1CCCCC1` (centres unmarked) [compound 201114, (1-benzyl-5-((2-(pyridin-4-yl)ethyl)amino)-4,5,6,7-tetrahydro-1H-indazol-3-yl)(piperidin-1-yl)methanone]: the Ki at sigma-1 receptor was 249 nM; at sigma-2 receptor, > 10000 nM.

As to `O=C(c1nn(Cc2ccccc2)c2c1CC(NCc1ccc(F)cc1)CC2)N1CCCCC1` (centres unmarked) [compound 201115, (1-benzyl-5-((4-fluorobenzyl)amino)-4,5,6,7-tetrahydro-1H-indazol-3-yl)(piperidin-1-yl)methanone], the “selectivity sigma-1 versus sigma-2 (in words)” value at sigma-1 receptor is “excellent selectivity”. The Ki at sigma-1 receptor is 70 nM; at sigma-2 receptor, > 10000 nM.

With `O=C(c1c2c(nn1-c1ccc(F)cc1)CCC(NCCc1ccncc1)C2)N1CCCCC1` (centres unmarked) [compound 201116, (2-(4-fluorophenyl)-5-((2-(pyridin-4-yl)ethyl)amino)-4,5,6,7-tetrahydro-2H-indazol-3-yl)(piperidin-1-yl)methanone], the Ki on sigma-1 receptor was 103 nM; on sigma-2 receptor it was 251 nM.

`NC(=O)c1ccc(-n2nc3c(c2C(=O)N2CCCCC2)CC(NCCc2ccccc2)CC3)cc1` (centres unmarked) [compound 201242, 4-(5-(Phenethylamino)-3-(piperidine-1-carbonyl)-4,5,6,7-tetrahydro-2H-indazol-2-yl)benzamide]: the Ki is 588 nM at sigma-1 receptor and > 10000 nM at sigma-2 receptor.

`NC(=O)c1ccc(-n2nc(C(=O)N3CCCCC3)c3c2CCC(NCCc2ccccc2)C3)cc1` (centres unmarked) [compound 201243, 4-(5-(Phenethylamino)-3-(piperidine-1-carbonyl)-4,5,6,7-tetrahydro-1H-indazol-1-yl)benzamide]: the inhibition constant Ki on sigma-1 receptor was 465 nM; on sigma-2 receptor, 561 nM.

As to `C=Cc1ccc(-n2nc(C(=O)N3CCCCC3)c3c2CCC(NCCc2ccccc2)C3)cc1` (centres unmarked) [compound 201244, (5-(Phenethylamino)-1-(4-vinylphenyl)-4,5,6,7-tetrahydro-1H-indazol-3-yl)(piperidin-1-yl)methanone], the Ki on sigma-1 receptor stood at 458 nM; on sigma-2 receptor, 305 nM.

Take `C=Cc1ccc(-n2nc3c(c2C(=O)N2CCCCC2)CC(NCCc2ccccc2)CC3)cc1` (centres unmarked) [compound 201591, (5-(phenethylamino)-2-(4-vinylphenyl)-4,5,6,7-tetrahydro-2H-indazol-3-yl)(piperidin-1-yl)methanone]: the Ki was 96 nM on sigma-1 receptor and 32 nM on sigma-2 receptor.

Turning to `O=C(c1nn(-c2ccccc2)c2c1CC(NCc1ccccc1)CC2)N1CCCCC1` (centres unmarked) [compound 201665, (5-(Benzylamino)-1-phenyl-4,5,6,7-tetrahydro-1H-indazol-3-yl)(piperidin-1-yl)methanone], the Ki on sigma-1 receptor came out at 710 nM; at sigma-2 receptor it was 492 nM.

As for `O=C(c1nn(-c2ccccc2)c2c1CC(NCCc1ccncc1)CC2)N1CCCCC1` (centres unmarked) [compound 201666, (1-Phenyl-5-((2-(pyridin-4-yl)ethyl)amino)-4,5,6,7-tetrahydro-1H-indazol-3-yl)(piperidin-1-yl)methanone], the Ki at sigma-1 receptor turned out to be 1030 nM; at sigma-2 receptor, 517 nM.

On to `O=C(c1nn(-c2ccccc2)c2c1CC(NCCc1ccc(F)cc1)CC2)N1CCCCC1` (centres unmarked) [compound 201667, (5-((4-Fluorophenethyl)amino)-1-phenyl-4,5,6,7-tetrahydro-1H-indazol-3-yl)(piperidin-1-yl)methanone], for which, on sigma-1 receptor, the “selectivity sigma-1 versus sigma-2 (in words)” value is reported as “equipotent inhibitor against both sigma receptors” and the Ki stood at 131 nM. At sigma-2 receptor, the Ki came to 91 nM.

As to `O=C(c1c2c(nn1-c1ccccc1)CCC(NCCc1ccncc1)C2)N1CCCCC1` (centres unmarked) [compound 201670, (2-Phenyl-5-((2-(pyridin-4-yl)ethyl)amino)-4,5,6,7-tetrahydro-2H-indazol-3-yl)(piperidin-1-yl)methanone], the Ki on sigma-1 receptor stood at 226 nM; at sigma-2 receptor, 296 nM.

For the molecule `O=C(c1c2c(nn1-c1ccccc1)CCC(NCc1ccccc1)C2)N1CCCCC1` (centres unmarked) [compound 201676, (5-(Benzylamino)-2-phenyl-4,5,6,7-tetrahydro-2H-indazol-3-yl)(piperidin-1-yl)methanone], the Ki on sigma-1 receptor was found to be 38 nM; on sigma-2 receptor, 139 nM.
